Measurements: ChEMBL document CHEMBL1201862, “PubChem BioAssay data set” (2004)
Each block holds one compound with its values, some of them ahead of it. Active and inactive are the calls of the source.

Assays:
[1] = molecular target: Endoplasmic reticulum aminopeptidase 1 (Homo sapiens, UniProt Q9NZ08); test: inhibition of human ERAP1 enzyme activity – biochemical, cherry-pick, set 2, plate reader, dose response (AID 743314)
[2] = molecular target: 1-phosphatidylinositol 4,5-bisphosphate phosphodiesterase beta-3 (Homo sapiens, UniProt Q01970); test: Fluorescence-based biochemical high throughput dose response assay to identify inhibitors of phospholipase C isozymes (PLC-B3).
Sequence of 1-phosphatidylinositol 4,5-bisphosphate phosphodiesterase beta-3 (Q01970 whole entry): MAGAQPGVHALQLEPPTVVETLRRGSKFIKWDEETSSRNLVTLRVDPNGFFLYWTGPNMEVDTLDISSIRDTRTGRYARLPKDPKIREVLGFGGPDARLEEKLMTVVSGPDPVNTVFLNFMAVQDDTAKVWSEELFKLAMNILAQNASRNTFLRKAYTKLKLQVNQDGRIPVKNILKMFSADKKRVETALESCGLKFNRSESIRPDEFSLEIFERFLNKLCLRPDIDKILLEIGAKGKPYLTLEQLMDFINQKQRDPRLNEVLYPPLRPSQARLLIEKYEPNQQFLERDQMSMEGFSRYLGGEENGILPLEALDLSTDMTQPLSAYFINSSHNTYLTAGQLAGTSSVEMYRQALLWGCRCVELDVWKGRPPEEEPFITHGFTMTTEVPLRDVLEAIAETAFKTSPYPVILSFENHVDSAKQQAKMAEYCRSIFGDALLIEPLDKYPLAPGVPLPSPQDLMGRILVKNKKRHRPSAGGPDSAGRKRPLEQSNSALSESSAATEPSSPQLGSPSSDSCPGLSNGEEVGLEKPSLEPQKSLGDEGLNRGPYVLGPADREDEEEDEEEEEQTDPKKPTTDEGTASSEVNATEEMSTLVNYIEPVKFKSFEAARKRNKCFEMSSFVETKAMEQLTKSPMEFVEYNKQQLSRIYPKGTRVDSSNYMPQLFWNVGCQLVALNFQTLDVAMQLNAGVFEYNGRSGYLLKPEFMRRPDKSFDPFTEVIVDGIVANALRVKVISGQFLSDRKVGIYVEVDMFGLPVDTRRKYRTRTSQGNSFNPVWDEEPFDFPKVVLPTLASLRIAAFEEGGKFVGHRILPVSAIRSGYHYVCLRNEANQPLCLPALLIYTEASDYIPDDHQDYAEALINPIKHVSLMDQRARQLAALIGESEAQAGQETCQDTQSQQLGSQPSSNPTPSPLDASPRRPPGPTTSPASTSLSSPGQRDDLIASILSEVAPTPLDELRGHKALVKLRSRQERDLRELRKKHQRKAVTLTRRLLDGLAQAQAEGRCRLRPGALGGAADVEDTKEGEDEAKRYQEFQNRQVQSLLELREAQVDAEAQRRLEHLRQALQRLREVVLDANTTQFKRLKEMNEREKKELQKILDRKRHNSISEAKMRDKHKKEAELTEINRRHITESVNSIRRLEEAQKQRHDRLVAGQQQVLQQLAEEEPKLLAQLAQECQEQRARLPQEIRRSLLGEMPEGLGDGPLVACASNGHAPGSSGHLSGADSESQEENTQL

[3] = molecular target: 1-phosphatidylinositol 4,5-bisphosphate phosphodiesterase gamma-1 (Homo sapiens, UniProt P19174); test: Counterscreen for inhibitors of phospholipase C isozymes (PLC-B3): Fluorescence-based biochemical high throughput dose response assay to identify inhibitors of phospholipase C isozymes (PLC-gamma1).
Sequence of 1-phosphatidylinositol 4,5-bisphosphate phosphodiesterase gamma-1 (P19174 whole entry, the tested form may be a part): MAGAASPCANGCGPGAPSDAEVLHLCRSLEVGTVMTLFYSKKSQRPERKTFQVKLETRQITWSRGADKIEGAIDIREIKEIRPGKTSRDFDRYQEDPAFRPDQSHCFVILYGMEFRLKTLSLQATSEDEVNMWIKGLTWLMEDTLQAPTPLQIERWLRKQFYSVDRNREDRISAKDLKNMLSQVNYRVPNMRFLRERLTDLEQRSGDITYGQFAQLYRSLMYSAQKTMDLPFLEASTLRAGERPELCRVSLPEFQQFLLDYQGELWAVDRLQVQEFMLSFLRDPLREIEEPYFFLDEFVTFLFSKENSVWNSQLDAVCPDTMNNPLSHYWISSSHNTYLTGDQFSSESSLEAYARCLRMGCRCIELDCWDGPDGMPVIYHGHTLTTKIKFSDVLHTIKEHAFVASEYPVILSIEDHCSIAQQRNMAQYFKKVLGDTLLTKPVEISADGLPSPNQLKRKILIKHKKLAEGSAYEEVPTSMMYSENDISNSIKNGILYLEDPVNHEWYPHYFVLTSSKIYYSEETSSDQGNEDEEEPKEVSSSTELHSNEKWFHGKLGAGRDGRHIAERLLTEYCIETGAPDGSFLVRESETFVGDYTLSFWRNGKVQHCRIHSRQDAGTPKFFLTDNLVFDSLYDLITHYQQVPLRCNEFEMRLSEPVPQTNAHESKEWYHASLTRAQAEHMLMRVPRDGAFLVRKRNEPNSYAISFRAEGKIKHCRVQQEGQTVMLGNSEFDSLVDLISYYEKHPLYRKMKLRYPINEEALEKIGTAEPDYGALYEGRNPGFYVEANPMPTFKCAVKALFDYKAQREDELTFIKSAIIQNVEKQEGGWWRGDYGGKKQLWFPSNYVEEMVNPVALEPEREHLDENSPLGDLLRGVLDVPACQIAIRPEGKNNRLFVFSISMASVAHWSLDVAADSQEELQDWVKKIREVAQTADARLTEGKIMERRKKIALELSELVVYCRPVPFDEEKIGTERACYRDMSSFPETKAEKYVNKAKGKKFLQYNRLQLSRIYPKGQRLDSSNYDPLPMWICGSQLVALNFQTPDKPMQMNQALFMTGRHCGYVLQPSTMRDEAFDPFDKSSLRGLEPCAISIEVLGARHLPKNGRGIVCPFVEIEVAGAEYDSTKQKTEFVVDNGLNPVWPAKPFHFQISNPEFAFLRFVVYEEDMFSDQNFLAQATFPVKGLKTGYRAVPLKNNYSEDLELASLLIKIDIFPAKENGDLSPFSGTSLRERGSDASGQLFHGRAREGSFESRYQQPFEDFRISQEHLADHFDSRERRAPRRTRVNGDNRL

[4] = molecular target: Disintegrin and metalloproteinase domain-containing protein 17 (Homo sapiens, UniProt P78536); test: exosite inhibitors of ADAM17, dose response, biochemical (AID 743260)
Sequence of Disintegrin and metalloproteinase domain-containing protein 17 (P78536 whole entry, the tested form may be a part): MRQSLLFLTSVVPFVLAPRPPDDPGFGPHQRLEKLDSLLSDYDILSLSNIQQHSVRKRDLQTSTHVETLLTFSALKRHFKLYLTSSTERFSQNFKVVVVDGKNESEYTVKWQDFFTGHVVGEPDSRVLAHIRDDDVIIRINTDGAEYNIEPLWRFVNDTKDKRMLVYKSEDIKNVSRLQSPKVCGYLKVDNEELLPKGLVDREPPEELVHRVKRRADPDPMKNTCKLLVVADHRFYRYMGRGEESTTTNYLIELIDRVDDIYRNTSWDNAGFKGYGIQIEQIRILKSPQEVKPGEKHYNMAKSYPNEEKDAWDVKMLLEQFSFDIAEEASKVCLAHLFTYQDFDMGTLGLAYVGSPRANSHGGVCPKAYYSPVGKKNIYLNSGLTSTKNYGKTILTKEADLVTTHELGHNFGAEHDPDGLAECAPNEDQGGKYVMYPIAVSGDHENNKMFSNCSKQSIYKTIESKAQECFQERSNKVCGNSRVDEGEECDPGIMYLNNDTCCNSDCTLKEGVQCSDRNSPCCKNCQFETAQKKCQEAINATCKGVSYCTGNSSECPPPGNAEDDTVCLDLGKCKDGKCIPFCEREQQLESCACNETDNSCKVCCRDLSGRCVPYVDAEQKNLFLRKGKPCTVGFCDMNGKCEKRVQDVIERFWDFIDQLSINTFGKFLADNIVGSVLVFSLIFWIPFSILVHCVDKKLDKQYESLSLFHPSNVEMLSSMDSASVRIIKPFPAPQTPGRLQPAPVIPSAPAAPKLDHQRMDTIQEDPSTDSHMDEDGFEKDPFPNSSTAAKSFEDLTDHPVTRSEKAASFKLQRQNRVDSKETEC

[5] = inhibition of ADAM10 peptide cleavage – biochemical, FRET peptide substrate, recombinant human ADAM10, selectivity assay for ADAM17 exosite inhibitor project, dose response (AID 743259);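 note: ADAM10 enzyme cleaving a FRET peptide substrate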
[6] = Luminescence-based cell-based high throughput dose response assay to identify activators of the DAF-12 from the parasite S. stercoralis (ssDAF-12).; format: functional
[7] = molecular target: T1, Oxysterols receptor LXR-beta (Homo sapiens, UniProt P55055); test: LXR agonists, Gal4 luciferase reporter, dose response, counter-screen for ssDAF-12 agonist project, cell-based, luminescence, HEK293, S. stercoralis campaign (AID 720737); format: functional; conditions: read-out: IC50 (the source's name)
T1 sequence (P55055 whole entry): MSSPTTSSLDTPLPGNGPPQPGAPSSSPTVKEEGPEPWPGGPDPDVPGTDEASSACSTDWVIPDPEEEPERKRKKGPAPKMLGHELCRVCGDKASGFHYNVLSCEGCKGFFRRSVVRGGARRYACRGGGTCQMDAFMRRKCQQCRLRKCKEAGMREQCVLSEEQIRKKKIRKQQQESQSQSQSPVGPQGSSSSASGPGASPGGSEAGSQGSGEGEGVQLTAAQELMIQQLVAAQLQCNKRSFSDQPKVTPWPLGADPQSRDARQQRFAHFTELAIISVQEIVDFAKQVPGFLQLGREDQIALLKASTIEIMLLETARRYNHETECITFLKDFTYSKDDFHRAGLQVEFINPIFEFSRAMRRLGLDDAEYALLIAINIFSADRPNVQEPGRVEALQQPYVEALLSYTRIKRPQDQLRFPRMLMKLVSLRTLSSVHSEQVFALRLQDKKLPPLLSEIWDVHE

Caspase-3 = molecular target: T2, Caspase-3 (Homo sapiens, UniProt P42574); format: functional;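 note: Dose-response selectivity test against caspase-3 for candidate inhibitors of sentrin-specific proteases (SENPs)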
T2 sequence (P42574 whole entry): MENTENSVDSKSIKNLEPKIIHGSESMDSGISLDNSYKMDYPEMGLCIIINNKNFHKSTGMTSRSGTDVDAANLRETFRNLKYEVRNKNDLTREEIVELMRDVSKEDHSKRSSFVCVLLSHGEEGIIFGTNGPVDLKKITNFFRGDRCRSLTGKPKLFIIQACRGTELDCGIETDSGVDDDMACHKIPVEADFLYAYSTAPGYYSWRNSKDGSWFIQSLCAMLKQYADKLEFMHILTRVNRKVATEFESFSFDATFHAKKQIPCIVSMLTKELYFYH

[8] = molecular target: T1, Oxysterols receptor LXR-beta; format: functional, cell-based
Cytochrome P450 2C9 = Cytochrome P450 2C9 (Homo sapiens, UniProt P11712)
Sequence of Cytochrome P450 2C9 (P11712 whole entry): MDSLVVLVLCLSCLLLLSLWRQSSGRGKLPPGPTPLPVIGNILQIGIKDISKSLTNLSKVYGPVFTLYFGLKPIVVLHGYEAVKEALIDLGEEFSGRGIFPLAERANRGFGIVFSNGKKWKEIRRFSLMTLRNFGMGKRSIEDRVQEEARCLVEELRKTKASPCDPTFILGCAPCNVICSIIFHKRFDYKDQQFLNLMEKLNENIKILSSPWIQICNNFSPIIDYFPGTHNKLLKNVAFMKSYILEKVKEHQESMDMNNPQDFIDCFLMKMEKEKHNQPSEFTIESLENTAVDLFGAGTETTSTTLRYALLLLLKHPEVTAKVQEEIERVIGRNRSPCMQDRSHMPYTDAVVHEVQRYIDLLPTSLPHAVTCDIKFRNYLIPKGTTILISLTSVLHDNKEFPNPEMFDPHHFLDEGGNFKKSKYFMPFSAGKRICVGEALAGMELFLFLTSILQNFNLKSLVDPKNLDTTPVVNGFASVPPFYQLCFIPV

[9] = molecular target: T3, Sentrin-specific protease 6 (Homo sapiens, UniProt Q9GZR1); format: functional;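 note: Luminescence-based dose-response confirmatory assay of SENP6 inhibition, following up an ultra-high-throughput screen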
T3 sequence (Q9GZR1 whole entry): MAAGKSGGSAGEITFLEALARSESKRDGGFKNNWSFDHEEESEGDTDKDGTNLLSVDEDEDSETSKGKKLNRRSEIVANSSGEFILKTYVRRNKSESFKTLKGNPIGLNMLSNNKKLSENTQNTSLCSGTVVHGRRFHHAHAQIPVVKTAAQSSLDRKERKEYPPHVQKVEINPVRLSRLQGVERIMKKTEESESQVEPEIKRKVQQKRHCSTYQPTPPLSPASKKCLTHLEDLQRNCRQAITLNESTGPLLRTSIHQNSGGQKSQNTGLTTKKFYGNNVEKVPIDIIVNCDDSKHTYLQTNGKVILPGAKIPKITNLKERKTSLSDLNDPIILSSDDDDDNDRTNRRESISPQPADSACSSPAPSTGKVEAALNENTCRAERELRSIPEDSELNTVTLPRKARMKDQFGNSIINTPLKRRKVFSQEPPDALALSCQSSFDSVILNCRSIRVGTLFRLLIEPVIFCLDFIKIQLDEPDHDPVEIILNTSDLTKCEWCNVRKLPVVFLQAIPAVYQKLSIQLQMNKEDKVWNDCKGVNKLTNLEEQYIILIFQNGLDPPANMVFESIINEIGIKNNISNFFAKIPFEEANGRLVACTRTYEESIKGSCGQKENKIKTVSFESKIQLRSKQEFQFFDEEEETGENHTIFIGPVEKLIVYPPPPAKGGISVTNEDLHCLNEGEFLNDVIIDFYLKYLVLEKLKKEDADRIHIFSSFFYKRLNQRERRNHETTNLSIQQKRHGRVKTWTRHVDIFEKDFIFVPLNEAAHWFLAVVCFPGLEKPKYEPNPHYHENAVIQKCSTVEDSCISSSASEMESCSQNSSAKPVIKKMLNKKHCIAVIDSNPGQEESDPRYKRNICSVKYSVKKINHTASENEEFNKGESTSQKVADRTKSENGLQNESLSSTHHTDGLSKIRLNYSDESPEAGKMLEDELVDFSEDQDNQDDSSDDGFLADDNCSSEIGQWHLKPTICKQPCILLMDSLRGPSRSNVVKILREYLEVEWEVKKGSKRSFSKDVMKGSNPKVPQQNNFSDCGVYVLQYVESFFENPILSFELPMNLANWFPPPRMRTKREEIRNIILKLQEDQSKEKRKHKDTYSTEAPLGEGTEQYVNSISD

[10] = molecular target: T4, Sentrin-specific protease 8 (Homo sapiens, UniProt Q96LD8); format: functional;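 note: luminescence read-out of SENP8 inhibition, dose-response confirmation following an ultra-high-throughput screen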
T4 sequence (Q96LD8 whole entry): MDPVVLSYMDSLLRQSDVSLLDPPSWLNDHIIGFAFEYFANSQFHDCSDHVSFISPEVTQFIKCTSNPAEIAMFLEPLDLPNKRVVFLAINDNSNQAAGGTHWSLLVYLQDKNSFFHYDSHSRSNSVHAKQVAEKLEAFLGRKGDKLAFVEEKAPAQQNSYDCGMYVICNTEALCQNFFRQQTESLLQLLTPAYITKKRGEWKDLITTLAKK

Cytochrome P450 2D6 = Cytochrome P450 2D6 (Homo sapiens, UniProt P10635);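 note: CYP2D6 member of a cytochrome P450 panel assay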
Sequence of Cytochrome P450 2D6 (P10635 whole entry): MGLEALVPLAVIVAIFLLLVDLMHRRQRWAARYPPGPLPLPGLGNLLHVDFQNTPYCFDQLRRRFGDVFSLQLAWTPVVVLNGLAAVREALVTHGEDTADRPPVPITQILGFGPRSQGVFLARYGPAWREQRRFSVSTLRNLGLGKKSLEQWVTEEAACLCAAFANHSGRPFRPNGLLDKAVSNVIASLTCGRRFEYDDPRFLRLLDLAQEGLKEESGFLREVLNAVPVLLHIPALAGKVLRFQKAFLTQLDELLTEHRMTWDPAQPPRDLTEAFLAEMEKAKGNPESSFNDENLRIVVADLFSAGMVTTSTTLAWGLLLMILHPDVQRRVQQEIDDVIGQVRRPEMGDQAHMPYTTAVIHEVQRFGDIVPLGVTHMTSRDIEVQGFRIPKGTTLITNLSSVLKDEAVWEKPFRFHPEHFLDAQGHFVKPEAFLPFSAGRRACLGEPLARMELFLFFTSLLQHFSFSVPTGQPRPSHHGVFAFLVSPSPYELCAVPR

[11] = molecular target: T5, Sentrin-specific protease 7 (Homo sapiens, UniProt Q9BQF6); format: functional;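 note: Luminescence-based dose-response confirmation of ultra-high-throughput screening hits, measuring inhibition of SENP7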
T5 sequence (Q9BQF6 whole entry): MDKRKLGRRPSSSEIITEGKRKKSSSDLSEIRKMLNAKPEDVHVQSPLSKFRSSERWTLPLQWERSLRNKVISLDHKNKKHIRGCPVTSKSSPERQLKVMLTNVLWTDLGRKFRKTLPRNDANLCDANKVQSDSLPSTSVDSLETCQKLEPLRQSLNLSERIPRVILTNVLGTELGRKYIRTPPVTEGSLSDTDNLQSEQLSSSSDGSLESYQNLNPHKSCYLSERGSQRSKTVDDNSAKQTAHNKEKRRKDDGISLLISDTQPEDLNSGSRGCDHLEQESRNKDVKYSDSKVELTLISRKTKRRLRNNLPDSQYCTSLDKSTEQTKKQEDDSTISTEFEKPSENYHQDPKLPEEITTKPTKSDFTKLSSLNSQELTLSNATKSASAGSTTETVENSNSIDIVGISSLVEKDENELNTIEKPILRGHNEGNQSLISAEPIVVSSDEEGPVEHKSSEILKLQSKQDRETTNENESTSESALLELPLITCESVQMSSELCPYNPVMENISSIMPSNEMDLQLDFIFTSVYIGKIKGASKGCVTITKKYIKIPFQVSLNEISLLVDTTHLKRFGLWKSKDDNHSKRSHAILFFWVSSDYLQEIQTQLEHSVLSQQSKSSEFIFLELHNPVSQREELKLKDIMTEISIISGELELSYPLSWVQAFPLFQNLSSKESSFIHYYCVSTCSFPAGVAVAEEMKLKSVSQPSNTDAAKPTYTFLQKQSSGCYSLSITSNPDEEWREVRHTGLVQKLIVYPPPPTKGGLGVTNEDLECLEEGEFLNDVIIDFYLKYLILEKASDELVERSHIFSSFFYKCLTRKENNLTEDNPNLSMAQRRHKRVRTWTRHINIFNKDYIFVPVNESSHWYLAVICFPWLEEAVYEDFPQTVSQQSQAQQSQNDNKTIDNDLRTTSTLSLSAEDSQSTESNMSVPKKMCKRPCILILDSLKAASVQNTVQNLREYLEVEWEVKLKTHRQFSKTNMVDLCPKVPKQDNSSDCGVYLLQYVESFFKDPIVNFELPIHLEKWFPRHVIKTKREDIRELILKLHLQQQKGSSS

SMILES: Cc1cc(=O)oc2c(CN3CCCC3)c(O)ccc12
- AC50 [1]: 11.8 µM (active)

SMILES: CCOc1ccccc1-n1nnnc1SCc1nc2ccccc2s1
- IC50 [6]: > 67.5 µM (inactive)
- EC50 [7]: > 67.5 µM (inactive)

SMILES: O=[N+]([O-])c1cccnc1NCCNc1ncc(C(F)(F)F)cc1Cl
- IC50 (Caspase-3): 28.7 µM (active)
- EC50 [8]: > 67.5 µM (inactive)
- AC50 (Cytochrome P450 2C9): inconclusive
- IC50 [9]: 19.1 µM (active)
- IC50 [10]: 23.3 µM (active)
- AC50 (Cytochrome P450 2D6): 14.1 µM (inconclusive)
- IC50 [11]: 6.52 µM (active)

The next lines start with results.

- IC50 [2]: > 122 µM (inactive)
- IC50 [3]: > 122 µM (inactive)
SMILES: COc1ccnc2c1c(=O)n(Cc1ccc(Cl)cc1Cl)c(=O)n2C

- IC50 [4]: > 69.5 µM (inactive)
SMILES: Cc1ccc(C2=NS(=O)(=O)N(C)C(C(=O)Nc3ccc4c(c3)OCO4)=C2)cc1
- IC50 [5]: 19 µM (inactive)
